Measurements as given in EP0435826A1, “Intravenous solutions for epilepsy” (CIBA-GEIGY AG, priority 1989, dated 1991).

Assays:
[1] = system: Tonische Konvulsionen der Hinterextremitäten; assay: Maximal electroshock test in mice (Elektroschock Test an Mäusen); assay type: in vivo; conditions: Mäuse; for ED50: Mus musculus, read-out: Schutz vor dem maximalen Elektroschock ED50
Text: (§1) Beispiel 5: Die akute Schutzwirkung von Carbamazepin und Oxcarbazepin nach intravenöser Verabreichung im Vergleich zur oralen wurde mit Hilfe des maximalen Elektroschocks ermittelt. Die folgenden Methoden wurden verwendet:
(§2) -Elektroschock Test an Mäusen: Tonische Konvulsionen der Hinterextremitäten wurden durch Verabreichung eines Wechselstromes von 50 Hz und 18 mA während 0,2 Sekunden mittels Cornealelektroden ausgelöst. Für jede Dosis und Zeiteinheit wurden 10 Mäuse verwendet; eine Gruppe diente als Kontrolle. Die Anzahl der Mäuse, die keine tonische Konvulsionen der Hinterextremitäten zeigte, wurde für jede Gruppe bestimmt. Die ED₅₀ wurde mit Hilfe der Regressionsanalyse nach der Methode von Spearman und Kärber bestimmt. Die Injektionsvolumina für i.v. Verabreichung sind 5 ml/kg bei Mäusen und 1 ml/kg bei Ratten.

[2] = system: Tonische Konvulsionen der Hinterextremitäten; assay: Maximal electroshock test in rats (Elektroschock Test an Ratten); assay type: in vivo; conditions: for ED50: Rattus norvegicus, read-out: Schutz vor dem maximalen Elektroschock ED50
Text: as §1
-Elektroschock Test an Ratten: Tonische Konvulsionen der Hinterextremitäten wurden durch Verabreichung eines Wechselstroms von 50 Hz und 36 mA während 0,63 Sekunden mit Hilfe von Cornealelektroden ausgelöst. Es wurden 10 Ratten pro Dosis und Zeiteinheit verwendet; eine Gruppe diente als Kontrolle. Die Anzahl der Ratten, die keine tonische Konvulsionen der Hinterextremitäten aufwiesen, wurde für jede Gruppe bestimmt. Die ED₅₀ wurde mit Hilfe der Regressionsanalyse nach der Methode von Spearman und Kärber berechnet.
as §2
[…] Die ED₅₀-Werte wurden durch Regressionsanalyse aus drei verschiedenen Dosen (10 Ratten pro Dosis) berechnet.

[3] = Solubility and properties of aqueous Hydroxypropyl-γ-cyclodextrin injection solutions; conditions: 22°C, in 40%-iger wässriger Lösung von Hydroxypropyl-γ-cyclodextrin
Description: In 100 ml dieser Lösung werden 1500 mg Carbamazepin durch Rühren bei Raumtemperatur (= 20°C) gelöst.
In 100 ml dieser Lösung werden 400,0 mg fein gemahlenes Oxcarbazepin durch Rühren bei 22°C gelöst.

[4] = iv, 2.5 min, intravenös, 2,5 min
[5] = po, 1 h, oral (suspension in Methocel®), 60 min
[6] = po, 2 h, oral (suspension in Methocel®), 120 min
[7] = iv, 5 min, intravenös, 5 min before shock
[8] = iv, 0.25 h, intravenös, 15 min before shock
[9] = po, 5 min, oral (suspension in Methocel®), 5 min
[10] = po, 0.5 h, oral (suspension in Methocel®), 30 min
[11] = po, 0.25 h, oral (suspension in Methocel®), 15 min

SMILES: NC(=O)N1c2ccccc2C=Cc2ccccc21 [Carbamazepin, 5H-Dibenz[b,f]azepin-5-carboxamid]
- ED50 [1, 4]: 2.9 mg/kg
- ED50 ([1]; iv, 5 min, intravenös, 5 min): 2.6 mg/kg
- ED50 ([1]; iv, 0.25 h, intravenös, 15 min): 4.7 mg/kg
- ED50 ([1]; iv, 0.5 h, intravenös, 30 min): 6.8 mg/kg
- ED50 ([1]; iv, 1 h, intravenös, 60 min): 6.5 mg/kg
- ED50 ([1]; iv, 2 h, intravenös, 120 min): 17.3 mg/kg
- ED50 [1, 5]: 13 mg/kg
- ED50 [1, 6]: 27 mg/kg
- Schutz vor dem maximalen Elektroschock ([1]; oral (suspension in Methocel®), 2,5 min, bei 60 mg/kg): 10 % bei 60 mg/kg
- ED50 [2, 7]: 2.5 mg/kg
- ED50 [2, 8]: 2.5 mg/kg
- ED50 ([2]; iv, 0.5 h, intravenös, 30 min): 2 mg/kg
- ED50 ([2]; iv, 1 h, intravenös, 60 min): 3.1 mg/kg
- ED50 ([2]; iv, 2 h, intravenös, 120 min): 4.3 mg/kg
- ED50 ([2]; po, 2.5 min, oral (suspension in Methocel®), 2,5 min): 60 mg/kg
- ED50 [2, 9]: 60 mg/kg
- ED50 [2, 10]: 9.6 mg/kg
- ED50 [2, 5]: 10 mg/kg

SMILES: NC(=O)N1c2ccccc2CC(=O)c2ccccc21 [Oxcarbazepin, 10,11-Dihydro-10-oxo-5-dibenz[b,f]-acepin-5-carboxamid]
- ED50 [1, 4]: 4.35 mg/kg
- ED50 ([1]; iv, 5 min, intravenös, 5 min): 4.35 mg/kg
- ED50 ([1]; iv, 0.25 h, intravenös, 15 min): 5 mg/kg
- ED50 ([1]; iv, 0.5 h, intravenös, 30 min): 7.07 mg/kg
- ED50 ([1]; iv, 1 h, intravenös, 60 min): 10.7 mg/kg
- ED50 [1, 9]: 40.4 mg/kg
- ED50 [1, 11]: 14.5 mg/kg
- ED50 [1, 10]: 15.7 mg/kg
- ED50 [1, 5]: 17.8 mg/kg
- ED50 [1, 6]: 36.3 mg/kg
- Schutz vor dem maximalen Elektroschock ED50 ([1]; intravenös, 2,5 min, 2.5 min): 2,35 mg/kg
- Schutz vor dem maximalen Elektroschock ED50 ([1]; intravenös, 15 min): 5,00 mg/kg
- Schutz vor dem maximalen Elektroschock ED50 ([1]; intravenös, 60 min): 10,72 mg/kg
- Schutz vor dem maximalen Elektroschock ([1]; intravenös, 120 min, bei 20 mg/kg): 20 % bei 20 mg/kg
- ED50 [2, 7]: 3.44 mg/kg
- ED50 [2, 8]: 2.5 mg/kg
- ED50 ([2]; iv, 0.5 h, intravenös, 30 min): 3.44 mg/kg
- ED50 ([2]; iv, 1 h, intravenös, 60 min): 4.85 mg/kg
- ED50 ([2]; iv, 2 h, intravenös, 120 min): 5.7 mg/kg
- ED50 [2, 11]: 12.2 mg/kg
- ED50 [2, 10]: 12.2 mg/kg
- ED50 [2, 5]: 15.8 mg/kg
- ED50 [2, 6]: 16.1 mg/kg
- Schutz vor dem maximalen Elektroschock ED50 ([2]; intravenös, 15 min before shock, 15 min): 3,44 mg/kg
- Schutz vor dem maximalen Elektroschock ([2]; oral (suspension in Methocel®), 5 min, bei 30 mg/kg): 20 % bei 30 mg/kg
- Löslichkeit [3]: 37 mg in 10,0 ml
